Experiments:
diabetic patients = test: Systemic insulin and intraocular pressure in humans; type: in vivo, human
Description: Recently there is a growing worldwide trend towards appreciating the merits of insulin in the treatment of diabetic patients. Contrary to the previous practice, patient are encouraged now to switch from oral hypoglycemic treatment to insulin treatment, or even to start therapy with insulin without a period of therapy with the oral hypoglycemic agents. Twelve diabetic patients were scheduled to start insulin therapy. […] None of them had been found with diabetic retinopathy or glaucoma. The drug prescription history was reviewed, and none of the twelve patients was found with systemic therapy that can affect the intraocular pressure measurements. So far, none of them was switched to systemic therapy with drugs that can affect the intraocular pressure. Pachymetry measurements have shown stability, without correlation with the level of intraocular pressure. There was also no correlation between blood glucose levels and the intraocular pressure. The patients were followed at 2 weeks interval in first months and then once every 3 weeks. […] After 2 months reduction in intraocular pressure was higher than 15% from baseline in all cases. At the end of 3 months the reduction in intraocular pressure for all patients ranged from 24% up to 35% from baseline. This level of intraocular pressure reduction was maintained during the follow up until now.

filtering bleb = test: Success rate of filtering bleb after trabeculectomy; type: in vivo, rabbit; conditions: rabbits after trabeculectomy; daily injections to the filtering bleb
Experimental: 15 rabbits underwent trabeculectomy. Five rabbits were treated with daily insulin injections to the filtering bleb, 5 others received denaturized insulin and another 5 rabbits received same volume and same frequency of balanced salt solution. The results of successful blebs at month 4 were 4 out of 5 for the insulin group, and 2 out of 5 and 3 out of 5 for the denaturized insulin and the balanced salt solution respectively.

rabbit eye = test: Reduction in intraocular pressure following topical ocular (corneal) insulin administration, rabbit; type: in vivo; conditions: repeated small volume applications on upper third of the cornea
Experimental: (§1) Several Insulin preparations were administered to the cornea of rats and rabbits by repeated small volume applications on the upper third of the cornea with necessary measures to minimize conjunctival absorption and drainage to the nasal cavity. Reductions in intraocular pressure ranged from 28% to 36.5% in the rabbit eye and 22% to 29% in the rat eye.

rat eye = test: Reduction in intraocular pressure following topical ocular (corneal) insulin administration, rat; type: in vivo; conditions: repeated small volume applications on upper third of the cornea
Experimental: as §1

insulin
intraocular pressure versus baseline (diabetic patients; 1 month after starting insulin therapy, twelve diabetic patients): significantly lower than baseline values only in 5 patients | reduction in intraocular pressure from baseline (diabetic patients; after 2 months of insulin therapy, all cases): higher than 15% | successful blebs at month 4 (filtering bleb): 4 out of 5

denaturized insulin: similar insulin preparation that was denaturized, used as control
reduction in intraocular pressure (rabbit eye): no stastistically significant change | reduction in intraocular pressure (rat eye): no stastistically significant change | successful blebs at month 4 (filtering bleb): 2 out of 5
